Test results from article PMC10700596 (Nature Communications, 2023).
Read-outs that look alike come from different tables or passages of the source.

Columns and labels:
EP4R = molecular target: T1, EP4R (Homo sapiens, UniProt P35408); assay: PRESTO-Tango β-arrestin2 recruitment assay; assay type: cell-based
T1 construct: Tango fusion cassette (only 'tango' is printed); expressed in transfected cells; host or cells: HTLA cells (tTA-dependent luciferase reporter, β-arrestin2-TEV fusion)

in vivo = assay type: in vivo, mice
[1] = male, CD-1, mouse, plasma, ip, 10 mg/kg, mice, IP 10 mg/kg, plasma, mean of 3 animals, read-out: Plasma concentration C (mean)
[2] = male, CD-1, mouse, plasma, ip, 10 mg/kg, mice, IP 10 mg/kg, plasma, single animal, D=1, read-out: Final plasma concentration, individual sample
[3] = male, CD-1, mouse, plasma, iv, 10 mg/kg, mice, IV 10 mg/kg, plasma, single animals, read-out: Plasma concentration, Final (individual mouse)
[4] = male, CD-1, mouse, plasma, iv, 10 mg/kg, mice, IV 10 mg/kg, plasma, read-out: Plasma concentration C (mean)

T1 sequence (P35408 whole entry, the tested form may be a part): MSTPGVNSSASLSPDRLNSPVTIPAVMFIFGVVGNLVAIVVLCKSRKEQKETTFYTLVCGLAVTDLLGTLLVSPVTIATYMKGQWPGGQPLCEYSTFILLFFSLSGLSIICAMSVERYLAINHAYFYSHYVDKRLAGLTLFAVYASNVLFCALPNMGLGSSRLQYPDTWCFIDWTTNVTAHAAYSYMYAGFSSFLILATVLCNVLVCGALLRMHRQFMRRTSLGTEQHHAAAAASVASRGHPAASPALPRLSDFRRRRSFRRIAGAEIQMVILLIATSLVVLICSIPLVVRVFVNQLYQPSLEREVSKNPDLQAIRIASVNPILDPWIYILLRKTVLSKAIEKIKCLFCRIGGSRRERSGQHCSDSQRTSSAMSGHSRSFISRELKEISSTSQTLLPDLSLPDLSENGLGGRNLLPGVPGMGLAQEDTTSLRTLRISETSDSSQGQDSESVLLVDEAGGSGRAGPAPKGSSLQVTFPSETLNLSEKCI

## O=C([O-])C1CCC2(CC1)CC(Nc1ncnc3[nH]c4c(F)cccc4c13)C2.[Na+] (centres unmarked) [Compound 77, [Na+].[O-]C(=O)C1CCC2(CC(C2)NC=3N=CN=C4NC=5C(F)=CC=CC5C34)CC1]
EP4R; PRESTO-Tango IC50 (nM)
  IC50: 232 nM
EP4R; calculated using the Cheng Prusoff equation, read-out: PRESTO-Tango Ki*
  Ki: 46 nM
In vivo; 10 mg/kg i.p., two to four hours after injection
  concentrations in blood compared to CJ-42794: higher concentrations in blood two to four hours after injection
In vivo; [1]
  concentration at 5 min: 2420 ng/mL
  concentration at 15 min: 7250 ng/mL
  concentration at 30 min: 6710 ng/mL
  concentration at 60 min: 9910 ng/mL
  concentration at 120 min: 6380 ng/mL
  concentration at 240 min: 3590 ng/mL
  concentration at 360 min: 1980 ng/mL
  concentration at 480 min: 753 ng/mL
  concentration at 1440 min: 17 ng/mL
In vivo; [2]
  concentration at 5 min: 2380 ng/mL
  concentration at 15 min: 6880 ng/mL
  concentration at 30 min: 8130 ng/mL
  concentration at 60 min: 10900 ng/mL
  concentration at 360 min: 1660 ng/mL
  concentration at 480 min: 889 ng/mL
  concentration at 1440 min: 18.9 ng/mL
In vivo; male, CD-1, mouse, plasma, ip, 10 mg/kg i.p., mice
  Cmax: 9910 ng/mL
In vivo; male, CD-1, mouse, plasma, ip, 10 mg/kg i.p., mice, read-out: plasma AUC (converted)
  AUC: 39500 ng·h/mL
In vivo; [3]
  concentration at 5 min: 24100 ng/mL
  concentration at 15 min: 14400 ng/mL
  concentration at 30 min: 10900 ng/mL
  concentration at 60 min: 11000 ng/mL
  concentration at 120 min: 4760 ng/mL
  concentration at 240 min: 2370 ng/mL
  concentration at 360 min: 1260 ng/mL
In vivo; [4]
  concentration at 5 min: 26200 ng/mL
  concentration at 15 min: 17000 ng/mL
  concentration at 30 min: 12700 ng/mL
  concentration at 60 min: 10500 ng/mL
  concentration at 120 min: 4090 ng/mL
  concentration at 240 min: 2080 ng/mL
  concentration at 360 min: 1730 ng/mL
  concentration at 480 min: 1240 ng/mL
  concentration at 1440 min: 43.2 ng/mL
In vivo; male, CD-1, mouse, plasma, iv, 10 mg/kg i.v., mice, read-out: AUC (converted)
  AUC: 46200 ng·h/mL
In vivo; male, CD-1, mouse, plasma, oral, 30 mg/kg p.o. vs 10 mg/kg i.v., mice
  bioavailability: 78%
In vivo; male, CD-1, mouse, plasma, po, 30 mg/kg, mice, PO 30 mg/kg, plasma, read-out: Plasma concentration C (mean)
  concentration at 5 min: 4340 ng/mL
In vivo; male, CD-1, mouse, plasma, po, 30 mg/kg, mice, PO 30 mg/kg, plasma, single animals, read-out: Plasma concentration, Final (individual mouse)
  concentration at 15 min: 17600 ng/mL
